The term EC50 denotes the concentration at which the effect is half-maximal. As usually defined, the IC50 is the point on the concentration scale where inhibition reaches its midpoint. Read a low IC50 as greater potency.

For the assay, the system named is CEM cells HIV-1 protection, formazan growth assay. Put plainly: NCI AIDS Antiviral Assay. The conditions noted are these: for IC50: measured here: growth of uninfected CEM cells. Put shortly:
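Steps: treat uninfected and HIV-1-infected human CEM cells at five drug levels; quantify growth by soluble formazan; retest any compound reaching 50% protection; classify actives from the retest.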

Activity calls are given as the source filed them.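 Rule for the calls: active = compounds giving half or more protection of infected cells from virus-caused growth loss, again on retest; inactive = the rest.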 Where a SMILES comes first, the peptide text is derived from it.

In the case of `Cc1ccc(S(=O)(=O)OC(F)(F)C(F)(F)F)cc1`, the EC50 was over 234 µM and the half-inhibitory concentration (IC50) is over 234 µM.

As for `Cc1cccc(C(C)(C)C)c1NC(=O)CC1C(=O)Nc2ccccc2S1(=O)=O` (centres undefined), the EC50 was over 1.86 µM and the IC50 was over 1.86 µM. `Cc1ccccc1NC(=O)Cc1csc(N/N=C2\NC(=O)/C(=C/c3cccc([N+](=O)[O-])c3)S2)n1` returned an EC50 of over 200 µM and an IC50 of over 100 µM. On the same counts, the results for `COc1cc(NCCCNCC(C)(C)C)c2ncccc2c1` are over 200 µM and 81.3 µM.

For the molecule `COc1c2c(cc3occ(-c4ccc(CC=C(C)C)cc4)c(=O)c13)OC(C)(C)C=C2`, the EC50 is over 200 µM and the IC50 was 14.1 µM. For the molecule `CCCC(=O)NC(Nc1ccc(F)cc1)(C(F)(F)F)C(F)(F)F`, the result was inactive.

Consider `CC(=O)Nc1ccc(/C=N/NC(=S)NC2CN3CCC2CC3)cc1` (centres undefined), for which the EC50 is over 200 µM and the IC50 was over 200 µM. `O=C(O)c1nc2cc(C(F)(F)F)ccc2nc1Nc1ccc(F)cc1`: the EC50 was over 200 µM and the IC50 is 7.76 µM.

Regarding `N=C1SC23CCCN2C(=O)C2(CCCN2C3=O)S1`, the EC50 is over 891 µM and the half-inhibitory concentration (IC50) amounted to 174 µM.

On to `O=C(/C(=C/c1ccc(O)cc1)c1ccccc1)c1ccccc1`, for which the EC50 was over 120 µM and the IC50 was found to be 36.3 µM. For `C(=C/c1nnnn1-c1ccccc1)/Nc1ccccc1`, the EC50 was over 200 µM and the IC50 turned out to be 26.3 µM. On the same counts, the results for `CN=C(NC#N)NCCSCc1nc[nH]c1C` are over 389 µM and over 389 µM. In the case of `Brc1ccc(C[N+]23CN4CN(CN(C4)C2)C3)cc1`, the result was inactive. Regarding `CC1=NOC2(C1)/C(=N/O)CCC/C2=N\O` (centres undefined), the EC50 is over 200 µM and the IC50 is over 200 µM. Take `Cc1cc2nnn(C3CCCO3)c2cc1C` (centres undefined): the EC50 was over 200 µM and the concentration for half-maximal inhibition (IC50) is over 200 µM.

Turning to `S=C(N/N=C(/c1ccccc1)c1ccccn1)N(Cc1ccccn1)Cc1ccccn1`, the EC50 is over 200 µM and the half-maximal inhibitory concentration (IC50) was 0.0631 µM. On to `CC(NC(=O)C(CO)NC(=O)C(C)NC(=O)C(C)NC(=O)C(CC(N)=O)NC(=O)CN)C(N)=O` (centres undefined) (H-GNAASA-NH2; configuration not given here), for which the outcome was inactive. For `O=c1cc(NNc2ccccc2)[nH]c(=S)[nH]1`, the EC50 is over 200 µM and the 50% inhibitory concentration (IC50) stood at 12.3 µM. On the same counts, the results for `O=C1CCCC(=O)N1n1c(Cc2ccc(Cl)cc2)n[nH]c1=O` are over 200 µM and over 200 µM. On the same counts, the results for `O=C1c2ccccc2C(=O)N1CCCC[P+](c1ccccc1)(c1ccccc1)c1ccccc1` are over 200 µM and 15.5 µM.

In the case of `O=C(OCCN1CCNCC1)c1cc2ccccc2[nH]1`, the EC50 is over 200 µM and the half-maximal inhibitory concentration (IC50) was 26.9 µM. Consider `c1ccc(C2(c3ccccc3)S/C(=C3/SC(c4ccccc4)(c4ccccc4)c4ccccc43)c3ccccc32)cc1`, for which the result was inactive. In the case of `Cc1cc2c(cc1C)C(=O)C1(C2)Cc2cc3c(cc2C1=O)CCC3` (centres undefined), the EC50 was over 100 µM and the 50% inhibitory concentration (IC50) was over 100 µM. As to `CN(C)c1nc2oc(-c3ccccc3)c(-c3ccccc3)c2c2nnnn12`, the outcome was inactive. On the same count and under the same terms, under `O=C(CSc1ncn[nH]1)C[P+](c1ccccc1)(c1ccccc1)c1ccccc1` stands “inactive”.

In the case of `NNC1=Nc2cc3c(cc2C(=O)N2C[C@H](O)CC12)OCO3` (some centres undefined), the EC50 was over 200 µM and the 50% inhibitory concentration (IC50) is over 200 µM. With `CCC1(N)C(=O)OCc2c1cc1n(c2=O)Cc2cc3ccccc3nc2-1` (centres undefined), the EC50 is over 200 µM and the 50% inhibitory concentration (IC50) was determined as 0.813 µM. For the molecule `CCOC(=O)c1c(SCc2ccccc2)nc2c3ccccc3ccn12`, the EC50 was over 151 µM and the 50% inhibitory concentration (IC50) was over 151 µM. Consider `CN(C)/N=C(/SS/C(=N/N(C)C)C(F)(F)F)C(F)(F)F`, for which the result was inactive. Still for that read-out and setting: then `O=C(O)C(=C/C=C/c1ccccc1)C(=O)O`, with “inactive”. In the case of `CC1(C)NC(=O)[C@]2(C[C@@H](O)C=C2CO)O1`, the EC50 is over 200 µM and the half-maximal inhibitory concentration (IC50) was over 200 µM.

For the molecule `CCC12CCCN(Cc3ccccc3)C1c1c(n(C)c3ccccc13)C(C(=O)O)C2` (centres undefined), the EC50 is over 7.76 µM and the IC50 is over 7.76 µM.

In the case of `CC1(O)CC2C(CC1SCCO)C2(C)C` (centres undefined), the EC50 is over 1070 µM and the IC50 was found to be 631 µM. On the same counts, the results for `C=CCN(CC=C)C(=O)Nc1ccc(C(=O)N/N=C/c2cccc(OC)c2OC)cc1` are 89.1 µM and 170 µM. On the same counts, the results for `COC(=O)c1c(CC(Cc2ccc3c(c2)CCCC3)C(=O)O)ccc2c1CCCC2` (centres undefined) are over 200 µM and 58.9 µM. On the same counts, the results for `CN=c1ccc2cc3ccc(NC)cc3oc-2c1` are over 200 µM and 37.2 µM. Consider `CSc1ccc(Cc2cc(C(C)(C)C)cc(C(C)(C)C)c2O)cc1`, for which the result was inactive. Regarding `O=C(O)CCSC(=O)Nc1ccccc1`, the result was inactive. Turning to `CC(C)c1cc(=O)[nH]c2cc(N)ccc12`, the EC50 was over 200 µM and the IC50 was over 200 µM. As for `C=CC1(C)CC(=O)C2(O)C(O1)C(OC(C)=O)C(OC(C)=O)C1C2C(OC(C)=O)CCC1(C)C` (centres undefined), the EC50 was over 26.9 µM and the IC50 is over 26.9 µM. On to `CC(C)N1CCCOC(c2ccc([N+](=O)[O-])cc2)O1` (centres undefined), for which the EC50 was over 200 µM and the 50% inhibitory concentration (IC50) was 112 µM. On the same counts, the results for `COc1ccccc1C1C2=C(COC2=O)Oc2cc3c(cc21)OCO3` (centres undefined) are over 200 µM and 2.19 µM. On the same counts, the results for `COC(=O)[C@H](COC(=O)/C=C/c1ccc(OC(C)=O)c(OC(C)=O)c1)NC(=O)/C=C/c1ccc(OC(C)=O)c(OC(C)=O)c1` are over 100 µM and 17.8 µM.

For `COc1ccccc1NC(=S)N=Nc1c(O)[nH]c2ccccc12`, the EC50 was over 200 µM and the 50% inhibitory concentration (IC50) is 174 µM. On the same counts, the results for `O=C(O)[C@@H]1CSCN1C(=O)c1cccnc1SSc1ncccc1C(=O)N1CSC[C@H]1C(=O)O` are over 200 µM and over 200 µM.

As for `CCCc1[nH]c(SCCCCCCCCSc2nc(-c3ccc(F)cc3)c(CCC)[nH]2)nc1-c1ccc(F)cc1`, the EC50 was over 9.33 µM and the concentration for half-maximal inhibition (IC50) is over 9.33 µM. Turning to `COc1cc(-c2oc3cc(OC)c(OC)c(OC)c3c(=O)c2OC)cc(OC)c1OC`, the EC50 is over 200 µM and the half-maximal inhibitory concentration (IC50) is 26.3 µM. On the same counts, the results for `CC(=O)O[C@@H]1[C@H]2O[C@H]2[C@H]2O[C@@]2(COC(=O)c2ccccc2)[C@H]1OC(C)=O` are over 200 µM and 91.2 µM. Take `CC1=CCC[C@H]2[C@](C)(CC3=CC(=O)C(SCC(C)C)=CC3=O)[C@@H](C)CC[C@]12C`: the EC50 is over 200 µM and the IC50 was found to be 2.14 µM. In the case of `CCOC(=O)C(C(=O)OCC)C(NC(=O)Nc1cc(C(F)(F)F)ccc1OC)(C(F)(F)F)C(F)(F)F`, the result was inactive. Regarding `O=C(N/N=C/C=C/c1ccccc1)c1ccccc1Nc1ccccc1C(=O)N/N=C/C=C/c1ccccc1`, the EC50 is over 34.7 µM and the concentration for half-maximal inhibition (IC50) was 4.9 µM.

On to `CN(C)C(=Nc1ccc(NC(=O)c2ccc(C(=O)Nc3ccc(N=C(Nc4ccccc4)N(C)C)cc3)cc2)cc1)Nc1ccccc1`, for which the result was inactive. Consider `C[n+]1cc2c3c(ccc2c2ccc4cc5c(cc4c21)OCO5)OCO3`, for which the EC50 was over 1.58 µM and the concentration for half-maximal inhibition (IC50) turned out to be 0.288 µM.

These data come from PubChem BioAssay AID179 (DTP/NCI, 2004).
